# According to PMC8016481, “Tachykinin signaling inhibits task-specific behavioral responsiveness in honeybee workers” (eLife, 2021):
# Legend:
# [1] = test system: worker bees (Apis mellifera ligustica); assay: Proboscis extension response (PER) after TRP2 injection; format: in vivo; conditions: for reduction of SRS vs ddH2O, Z: Mann-Whitney U test; for PER ratio: 1 μl of 1 μg/μl into head, 1 hr after injection
# Protocol: To investigate the sucrose responsiveness, bees were assayed using an ascending order of sucrose concentrations: 0.1%, 0.3%, 1%, 3%, 10%, and 30% (weight/weight). A small droplet of each solution was touched to the bees’ antennae for 3 s and the extension of the proboscis was monitored during this time. The interval between each sucrose solution trial was 5 min to exclude sensitization or habituation effects. The total number of PER responses after stimulation with the six different sucrose concentrations was combined into an SRS of a bee ([Pankiw et al., 2001]; [Scheiner et al., 2002]; [Scheiner et al., 2003]). The SRSs of the three behavioral phenotypes in the same species were compared using Kruskal-Wallis tests with Bonferroni correction. Pairwise Mann-Whitney U tests were used for comparing the same phenotype from two honeybee species. The sucrose responsiveness for specific sucrose concentrations was further compared between different groups with independent chi-square tests.
# To test pollen stimulation, fresh pollen loads that had been removed from the leg of randomly selected PFs of the test group were used: AML were tested with pollen collected by AML foragers and ACC with pollen collected by ACC foragers. These loads contained a mixture of different pollen, predominated by black locust (R. pseudoacacia). As a control for mechanical stimulation, each bee had both antennae first touched with a piece of filter paper and spontaneous responders were excluded. Subsequently, both antennae of each bee were gently touched with a pollen load and PER responses were recorded. The pollen responsiveness was compared with independent chi-square tests between different groups.
# To test responsiveness to larva, 1-day-old larvae from each honeybee species were collected, briefly rinsed in distilled water to remove royal jelly residue and dried on a filter paper. As before, both antennae of bees were touched with a piece of filter paper first and spontaneous responders were excluded, then PERs in response to a larva touching the antennae were recorded. The responsiveness to larvae was compared with independent chi-square tests between different groups. Statistical analyses were conducted using SPSS Statistics 20.0 (IBM, USA).
# To confirm the function of TRP on task-specific responsiveness, NBs, PFs, and NFs of AML were injected with TRP2 and tested for their PER response to sucrose solution, pollen, and larva. About 150 bees of each behavioral phenotype were collected in the morning, then harnessed, fed and placed in a dark incubator as described in 'Comparative PER experiments' section. […] Bees injected with ddH2O were used as control. All injected bees were put back to the dark incubator and 1 hr after injection all surviving bees were assayed for their PER to stimulations of sucrose solution, pollen, and larva as described in 'Comparative PER experiments' section. Each experiment was performed with a new set of bees containing about 55 individuals per experimental and control group.
# The sucrose responsiveness was further compared between different groups at each specific sucrose concentration with independent chi-square tests. […] All statistical analyses were performed with SPSS Statistics 20.0 (IBM).
substance,measurement,setting,value
"ALMGFQGVRa [TRP2, honeybee tachykinin-related peptide 2, synthesized by SynPeptide]",intracellular Ca2+ levels,TRPR,rose sharply
same,"effect on larva responsiveness vs ddH2O, χ^2","[1]; NBs, chi-square test",6.1
same,effect on larva responsiveness,"[1]; NBs, vs ddH2O",significantly affected the responsiveness of NBs
same,effect on sucrose responsiveness,"[1]; NBs, vs ddH2O",did not show significant responsiveness changes to sucrose
same,effect on larva responsiveness,"[1]; NFs and PFs, vs ddH2O",not NFs or PFs
same,"reduction of SRS vs ddH2O, Z",[1]; NFs,2.3
same,effect on sucrose responsiveness,"[1]; NFs, vs ddH2O",significantly reducing PER responses to all sucrose concentrations except 0.1%
same,"reduction of SRS vs ddH2O, Z",[1]; PFs,2.2
same,"decrease of pollen responsiveness vs ddH2O, χ^2","[1]; PFs, chi-square test",6.7
same,effect on pollen responsiveness,"[1]; PFs, vs ddH2O",significantly decreased responsiveness to pollen loads
same,effect on sucrose responsiveness,"[1]; PFs, vs ddH2O",significantly reducing PER responses to all sucrose concentrations used
same,PER ratio,"[1]; nectar foragers, larva stimulus",11.54%
same,PER ratio,"[1]; nectar foragers, pollen stimulus",15.38%
same,PER ratio,"[1]; nectar foragers, sucrose 0.1%",10.34%
same,PER ratio,"[1]; nectar foragers, sucrose 0.3%",10.34%
same,PER ratio,"[1]; nectar foragers, sucrose 1.0%",12.07%
same,PER ratio,"[1]; nectar foragers, sucrose 3.0%",13.79%
same,PER ratio,"[1]; nectar foragers, sucrose 10.0%",20.69%
same,PER ratio,"[1]; nectar foragers, sucrose 30.0%",25.86%
same,PER ratio,"[1]; nurse bees, larva stimulus",18.18%
same,PER ratio,"[1]; nurse bees, pollen stimulus",12.73%
same,PER ratio,"[1]; nurse bees, sucrose 0.1%",15.38%
same,PER ratio,"[1]; nurse bees, sucrose 0.3%",19.23%
same,PER ratio,"[1]; nurse bees, sucrose 1.0%",25.00%
same,PER ratio,"[1]; nurse bees, sucrose 3.0%",30.77%
same,PER ratio,"[1]; nurse bees, sucrose 10.0%",40.38%
same,PER ratio,"[1]; nurse bees, sucrose 30.0%",48.08%
same,PER ratio,"[1]; pollen foragers, larva stimulus",22.64%
same,PER ratio,"[1]; pollen foragers, pollen stimulus",16.98%
same,PER ratio,"[1]; pollen foragers, sucrose 0.1%",16.98%
same,PER ratio,"[1]; pollen foragers, sucrose 0.3%",20.75%
same,PER ratio,"[1]; pollen foragers, sucrose 1.0%",22.64%
same,PER ratio,"[1]; pollen foragers, sucrose 3.0%",28.30%
same,PER ratio,"[1]; pollen foragers, sucrose 10.0%",32.08%
same,PER ratio,"[1]; pollen foragers, sucrose 30.0%",47.17%
